Data taken from PMC12478189, “Structurally diverse viral inhibitors converge on a shared mechanism to stall the antigen transporter TAP” (Proceedings of the National Academy of Sciences of the …, 2025).

Target: T1, TAP/hUS6 complex (Homo sapiens, UniProt Q03518+Q03519)
T1 construct: gene TAP1; TAP1 C-terminal SpyCatcher, TAP2, hUS6 with SpyTag at its cytoplasmic terminus (covalent tether), GFP tag cleaved; HEK293S GnTI-; in GDN; hUS6 residues 102-136 resolved; with Unique short US6 glycoprotein
Assay: cryo-EM structure of the complex
Type: binding
Conditions: pH 6.5

T1 sequence (P14334 20-183): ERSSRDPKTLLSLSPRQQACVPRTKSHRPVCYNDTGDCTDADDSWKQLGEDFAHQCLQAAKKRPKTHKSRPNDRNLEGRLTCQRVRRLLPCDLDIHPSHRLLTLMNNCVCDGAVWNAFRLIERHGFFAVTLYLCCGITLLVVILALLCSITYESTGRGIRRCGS
T1 sequence (Q03518 whole entry, the tested form may be a part): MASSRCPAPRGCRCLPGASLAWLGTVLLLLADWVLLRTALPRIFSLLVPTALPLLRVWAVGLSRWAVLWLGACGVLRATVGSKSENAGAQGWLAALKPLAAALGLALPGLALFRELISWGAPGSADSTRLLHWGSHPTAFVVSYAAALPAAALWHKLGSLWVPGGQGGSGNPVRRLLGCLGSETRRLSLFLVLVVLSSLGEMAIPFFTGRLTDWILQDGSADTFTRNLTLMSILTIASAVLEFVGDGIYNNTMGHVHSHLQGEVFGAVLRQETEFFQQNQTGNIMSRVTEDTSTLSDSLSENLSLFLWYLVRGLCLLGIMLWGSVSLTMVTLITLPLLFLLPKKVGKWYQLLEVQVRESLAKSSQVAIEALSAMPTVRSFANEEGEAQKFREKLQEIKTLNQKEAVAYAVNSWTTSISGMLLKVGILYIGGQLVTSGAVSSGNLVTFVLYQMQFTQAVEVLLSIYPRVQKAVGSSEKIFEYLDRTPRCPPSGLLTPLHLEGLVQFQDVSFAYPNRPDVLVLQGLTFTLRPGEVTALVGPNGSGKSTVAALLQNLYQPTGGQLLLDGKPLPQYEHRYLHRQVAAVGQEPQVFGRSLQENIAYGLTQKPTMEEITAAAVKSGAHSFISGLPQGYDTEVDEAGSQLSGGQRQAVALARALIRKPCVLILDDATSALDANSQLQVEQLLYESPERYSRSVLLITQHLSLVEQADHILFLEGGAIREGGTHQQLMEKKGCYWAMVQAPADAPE
T1 sequence (Q03519 whole entry, the tested form may be a part): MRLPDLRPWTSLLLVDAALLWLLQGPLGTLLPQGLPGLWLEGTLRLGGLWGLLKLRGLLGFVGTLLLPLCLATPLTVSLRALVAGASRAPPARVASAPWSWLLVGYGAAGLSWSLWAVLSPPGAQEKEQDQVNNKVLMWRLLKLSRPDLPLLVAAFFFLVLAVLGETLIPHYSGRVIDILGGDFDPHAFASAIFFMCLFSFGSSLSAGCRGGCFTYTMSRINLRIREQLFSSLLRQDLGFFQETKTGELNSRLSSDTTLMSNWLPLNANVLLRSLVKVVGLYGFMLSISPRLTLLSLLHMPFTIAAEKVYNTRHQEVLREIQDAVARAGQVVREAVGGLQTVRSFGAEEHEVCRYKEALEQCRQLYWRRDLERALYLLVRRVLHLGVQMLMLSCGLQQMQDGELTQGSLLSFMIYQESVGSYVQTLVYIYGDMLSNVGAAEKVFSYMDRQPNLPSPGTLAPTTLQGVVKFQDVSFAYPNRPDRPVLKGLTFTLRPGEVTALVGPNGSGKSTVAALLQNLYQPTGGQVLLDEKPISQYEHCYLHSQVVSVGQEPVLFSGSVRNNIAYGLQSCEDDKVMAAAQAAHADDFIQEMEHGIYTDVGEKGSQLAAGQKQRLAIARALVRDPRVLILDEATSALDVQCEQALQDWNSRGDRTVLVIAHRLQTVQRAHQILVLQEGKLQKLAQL

Structure (SMILES) | cryo-EM structure of the complex (10 mM ATP, ATP at the degenerate NBD site, outward-facing, NBD-dimerized) | cryo-EM structure of the complex (10 mM ATP added, ADP at the consensus NBD site, posthydrolytic state)
Nc1ncnc2c1ncn2[C@@H]1O[C@H](COP(=O)(O)OP(=O)(O)OP(=O)(O)O)[C@@H](O)[C@H]1O [ATP] | densities corresponding to ATP bound at the degenerate site and ADP at the consensus site | 
Nc1ncnc2c1ncn2[C@@H]1O[C@H](COP(=O)(O)OP(=O)(O)O)[C@@H](O)[C@H]1O [ADP] |  | densities corresponding to ATP bound at the degenerate site and ADP at the consensus site
